Measured values taken from patent publication US4157399A, “Benzo(B)thiophenes” (Parcor, priority 1976, dated 1979).
Where a name gives a salt, the structure may show the parent alone.

How the values were obtained:
Assay type in all cases: in vivo
[1] = Rabbit fed cholesterol-enriched (1%) feedstuff, dosage of elements causing dyslipemia; design: total cholesterol (T) / esterified cholesterol (E) / Kunkelphenol test (K2) / Burstein dextrane test (B) / serum lipids (LS): unit not given here; settings: 100 mg/Kg orally
Description: (§1) The animals divided into several batches of 15 animals are fed with feedstuff enriched in cholesterol (1%). Batch A serves as control and is not treated, the other batches also receive the derivatives to be tested at a dose of 100 mg/Kg, administered orally, suspended in aqueous solution of gum arabic at 5%. On the first day of experimentation and then every 15 days for 75 days biological examinations are conducted on all the animals, during which the various elements causing dyslipemia are dosed; total cholesterol (T), esterified cholesterol (E), free cholesterol (L), esterification ratio (E/T), Kunkel-Phenol test (K1), Kunkelphenol test (K2), Burstein dextrane test (B) and serum lipids (LS).

[2] = system: fatty infiltrations of the liver; experiment: Rabbit autopsy, mark for fatty infiltrations of the liver; settings: mark of 0 to 3; end of test (75 days); 100 mg/Kg orally
Description: as §1
(§2) At the end of the test all the animals are killed and an autopsy is carried out; a macroscopic examination is then conducted on the livers and aortas and a mark of 0 to 3 is given to the amount of fatty infiltrations of the liver and 0 to 4 to the intensity of aortic atheromatous lesions.

[3] = system: aortic atheromatous lesions; experiment: Rabbit autopsy, mark for aortic atheromatous lesions; settings: mark of 0 to 4; end of test (75 days); 100 mg/Kg orally
Description: as §1, §2

[4] = Propylthiouracil test, free and total cholesterol in the rat; settings: 11th day; propylthiouracil-treated rats; oral 100 mg/Kg
Description: Experiments were carried out according to the propylthiouracil test (RANNEY & Coll., J. PHARMACOL. EXPER. THERAP. 1963, 142, 132-136). The propyl-thiouracil administered to adult rats has the property of making them hypercholesterolemic: the plasma level of cholesterol increases by approximately 15% under these conditions. Experiments are conducted on various batches of rats, the control batch receiving only propylthiouracil and the other treated batches also receiving the composition of the invention at an oral dose of 100 mg/Kg.
On the 11th day of experimentation blood samples are taken and the free cholesterol and total cholesterol is dosed.

Structure (SMILES): CN(C)c1c(-c2ccccc2)sc2ccccc12 [derivative 29, 3-dimethylamino-2-phenyl-benzo(b)thiophene]
- Burstein dextrane test (B) ([1]; 1st day): 10,7
- Kunkel-Phenol test (K1) ([1]; 1st day): 7,8
- Kunkelphenol test (K2) ([1]; 1st day): 12,7
- esterification ratio (E/T) ([1]; 1st day): 0,46
- esterified cholesterol (E) ([1]; 1st day): 0,27
- free cholesterol (L) ([1]; 1st day): 0,28
- serum lipids (LS) ([1]; 1st day): 1,95
- total cholesterol (T) ([1]; 1st day): 0,58
- Burstein dextrane test (B) ([1]; 30th day): 21,00
- Kunkel-Phenol test (K1) ([1]; 30th day): 18,4
- Kunkelphenol test (K2) ([1]; 30th day): 24,9
- esterification ratio (E/T) ([1]; 30th day): 0,60
- esterified cholesterol (E) ([1]; 30th day): 0,89
- free cholesterol (L) ([1]; 30th day): 0,59
- serum lipids (LS) ([1]; 30th day): 2,83
- total cholesterol (T) ([1]; 30th day): 1,48
- Burstein dextrane test (B) ([1]; 75th day): 35,1
- Kunkel-Phenol test (K1) ([1]; 75th day): 32,6
- Kunkelphenol test (K2) ([1]; 75th day): 41,5
- esterification ratio (E/T) ([1]; 75th day): 0,60
- esterified cholesterol (E) ([1]; 75th day): 1,75
- free cholesterol (L) ([1]; 75th day): 1,15
- serum lipids (LS) ([1]; 75th day): 3,95
- total cholesterol (T) ([1]; 75th day): 2,90
- fatty infiltrations of the liver [2]: 0,8
- aortic atheromatons lesions [3]: 1,1
- Free cholesterol [4]: 0,12 g/l
- Total cholesterol [4]: 0,50 g/l

Structure (SMILES): CCCCN(C)c1c(-c2ccc(OC)cc2)sc2ccccc12 [derivative 42, 3-(N-butyl,N-methylamino)-2-(4-methoxyphenyl)-benzo(b)thiophene]
- Burstein dextrane test (B) ([1]; 1st day): 11,2
- Kunkel-Phenol test (K1) ([1]; 1st day): 8,1
- Kunkelphenol test (K2) ([1]; 1st day): 13,7
- esterification ratio (E/T) ([1]; 1st day): 0,50
- esterified cholesterol (E) ([1]; 1st day): 0,26
- free cholesterol (L) ([1]; 1st day): 0,25
- serum lipids (LS) ([1]; 1st day): 2,05
- total cholesterol (T) ([1]; 1st day): 0,51
- Burstein dextrane test (B) ([1]; 30th day): 21,2
- Kunkel-Phenol test (K1) ([1]; 30th day): 18,9
- Kunkelphenol test (K2) ([1]; 30th day): 25,5
- esterification ratio (E/T) ([1]; 30th day): 0,62
- esterified cholesterol (E) ([1]; 30th day): 0,90
- free cholesterol (L) ([1]; 30th day): 0,55
- serum lipids (LS) ([1]; 30th day): 2,91
- total cholesterol (T) ([1]; 30th day): 1,45
- Burstein dextrane test (B) ([1]; 75th day): 35,4
- Kunkel-Phenol test (K1) ([1]; 75th day): 33,2
- Kunkelphenol test (K2) ([1]; 75th day): 45,0
- esterification ratio (E/T) ([1]; 75th day): 0,61
- esterified cholesterol (E) ([1]; 75th day): 1,85
- free cholesterol (L) ([1]; 75th day): 1,09
- serum lipids (LS) ([1]; 75th day): 4,05
- total cholesterol (T) ([1]; 75th day): 2,94
- fatty infiltrations of the liver [2]: 0,9
- aortic atheromatons lesions [3]: 1,5
- Free cholesterol [4]: 0,12 g/l
- Total cholesterol [4]: 0,54 g/l

Structure (SMILES): c1ccc(CNc2c(-c3ccccc3)sc3ccccc23)cc1 [derivative n° 1, 3-benzylamino-2-phenyl-benzo(b)thiophene]
- Burstein dextrane test (B) ([1]; 1st day): 10,8
- Kunkel-Phenol test (K1) ([1]; 1st day): 7,9
- Kunkelphenol test (K2) ([1]; 1st day): 12,8
- esterification ratio (E/T) ([1]; 1st day): 0,53
- esterified cholesterol (E) ([1]; 1st day): 0,28
- free cholesterol (L) ([1]; 1st day): 0,24
- serum lipids (LS) ([1]; 1st day): 1,98
- total cholesterol (T) ([1]; 1st day): 0,52
- Burstein dextrane test (B) ([1]; 30th day): 21,3
- Kunkel-Phenol test (K1) ([1]; 30th day): 18,8
- Kunkelphenol test (K2) ([1]; 30th day): 25,7
- esterification ratio (E/T) ([1]; 30th day): 0,63
- esterified cholesterol (E) ([1]; 30th day): 0,95
- free cholesterol (L) ([1]; 30th day): 0,55
- serum lipids (LS) ([1]; 30th day): 2,9
- total cholesterol (T) ([1]; 30th day): 1,50
- Burstein dextrane test (B) ([1]; 75th day): 36,2
- Kunkel-Phenol test (K1) ([1]; 75th day): 33,3
- Kunkelphenol test (K2) ([1]; 75th day): 44,2
- esterification ratio (E/T) ([1]; 75th day): 0,62
- esterified cholesterol (E) ([1]; 75th day): 1,84
- free cholesterol (L) ([1]; 75th day): 1,12
- serum lipids (LS) ([1]; 75th day): 4,18
- total cholesterol (T) ([1]; 75th day): 2,96
- fatty infiltrations of the liver [2]: 1,1
- aortic atheromatons lesions [3]: 1,6
- Free cholesterol [4]: 0,15 g/l
- Total cholesterol [4]: 0,61 g/l

Structure (SMILES): c1ccc(CN(Cc2ccccc2)c2c(-c3ccccc3)sc3ccccc23)cc1 [derivative 19, 3-dibenzylamino-2-phenyl-benzo(b)thiophene]
- Burstein dextrane test (B) ([1]; 1st day): 10,9
- Kunkel-Phenol test (K1) ([1]; 1st day): 8,0
- Kunkelphenol test (K2) ([1]; 1st day): 13,1
- esterification ratio (E/T) ([1]; 1st day): 0,50
- esterified cholesterol (E) ([1]; 1st day): 0,28
- free cholesterol (L) ([1]; 1st day): 0,29
- serum lipids (LS) ([1]; 1st day): 1,97
- total cholesterol (T) ([1]; 1st day): 0,57
- Burstein dextrane test (B) ([1]; 30th day): 2,3
- Kunkel-Phenol test (K1) ([1]; 30th day): 18,4
- Kunkelphenol test (K2) ([1]; 30th day): 25,3
- esterification ratio (E/T) ([1]; 30th day): 0,64
- esterified cholesterol (E) ([1]; 30th day): 0,95
- free cholesterol (L) ([1]; 30th day): 0,52
- serum lipids (LS) ([1]; 30th day): 2,84
- total cholesterol (T) ([1]; 30th day): 1,47
- Burstein dextrane test (B) ([1]; 75th day): 36,1
- Kunkel-Phenol test (K1) ([1]; 75th day): 33,5
- Kunkelphenol test (K2) ([1]; 75th day): 46,5
- esterification ratio (E/T) ([1]; 75th day): 0,61
- esterified cholesterol (E) ([1]; 75th day): 1,79
- free cholesterol (L) ([1]; 75th day): 1,12
- serum lipids (LS) ([1]; 75th day): 4,08
- total cholesterol (T) ([1]; 75th day): 2,91
- fatty infiltrations of the liver [2]: 1,2
- aortic atheromatons lesions [3]: 1,3
- Free cholesterol [4]: 0,14 g/l
- Total cholesterol [4]: 0,58 g/l

Structure (SMILES): CCN(CC)c1c(-c2ccc(Cl)cc2)sc2ccccc12 [derivative 37, Hydrochloride of 2-(4-chlorophenyl)-3-diethylamino-benzo(b)thiophene]
- Burstein dextrane test (B) ([1]; 1st day): 10,5
- Kunkel-Phenol test (K1) ([1]; 1st day): 8,2
- Kunkelphenol test (K2) ([1]; 1st day): 12,9
- esterification ratio (E/T) ([1]; 1st day): 0,47
- esterified cholesterol (E) ([1]; 1st day): 0,27
- free cholesterol (L) ([1]; 1st day): 0,30
- serum lipids (LS) ([1]; 1st day): 2,00
- total cholesterol (T) ([1]; 1st day): 0,57
- Burstein dextrane test (B) ([1]; 30th day): 21,3
- Kunkel-Phenol test (K1) ([1]; 30th day): 18,8
- Kunkelphenol test (K2) ([1]; 30th day): 25,1
- esterification ratio (E/T) ([1]; 30th day): 0,62
- esterified cholesterol (E) ([1]; 30th day): 0,97
- free cholesterol (L) ([1]; 30th day): 0,58
- serum lipids (LS) ([1]; 30th day): 2,85
- total cholesterol (T) ([1]; 30th day): 1,55
- Burstein dextrane test (B) ([1]; 75th day): 35,7
- Kunkel-Phenol test (K1) ([1]; 75th day): 32,8
- Kunkelphenol test (K2) ([1]; 75th day): 46,7
- esterification ratio (E/T) ([1]; 75th day): 0,61
- esterified cholesterol (E) ([1]; 75th day): 1,80
- free cholesterol (L) ([1]; 75th day): 1,14
- serum lipids (LS) ([1]; 75th day): 4,15
- total cholesterol (T) ([1]; 75th day): 2,94
- fatty infiltrations of the liver [2]: 1,00
- aortic atheromatons lesions [3]: 1,3
- Free cholesterol [4]: 0,13 g/l
- Total cholesterol [4]: 0,58 g/l

Structure (SMILES): c1ccc(CN2CCN(c3c(-c4ccccc4)sc4ccccc34)CC2)cc1 [derivative 24, 3-(4-benzylpiperazino)-2-phenyl-benzo(b) thiophene]
- Burstein dextrane test (B) ([1]; 1st day): 10,8
- Kunkel-Phenol test (K1) ([1]; 1st day): 8,2
- Kunkelphenol test (K2) ([1]; 1st day): 13,0
- esterification ratio (E/T) ([1]; 1st day): 0,50
- esterified cholesterol (E) ([1]; 1st day): 0,28
- free cholesterol (L) ([1]; 1st day): 0,27
- serum lipids (LS) ([1]; 1st day): 2,00
- total cholesterol (T) ([1]; 1st day): 0,55
- Burstein dextrane test (B) ([1]; 30th day): 2,1
- Kunkel-Phenol test (K1) ([1]; 30th day): 18,8
- Kunkelphenol test (K2) ([1]; 30th day): 25,3
- esterification ratio (E/T) ([1]; 30th day): 0,65
- esterified cholesterol (E) ([1]; 30th day): 0,98
- free cholesterol (L) ([1]; 30th day): 0,52
- serum lipids (LS) ([1]; 30th day): 2,87
- total cholesterol (T) ([1]; 30th day): 1,50
- Burstein dextrane test (B) ([1]; 75th day): 35,2
- Kunkel-Phenol test (K1) ([1]; 75th day): 32,9
- Kunkelphenol test (K2) ([1]; 75th day): 48,2
- esterification ratio (E/T) ([1]; 75th day): 0,61
- esterified cholesterol (E) ([1]; 75th day): 1,80
- free cholesterol (L) ([1]; 75th day): 1,11
- serum lipids (LS) ([1]; 75th day): 3,98
- total cholesterol (T) ([1]; 75th day): 2,91
- fatty infiltrations of the liver [2]: 1,00
- aortic atheromatons lesions [3]: 1,4
- Free cholesterol [4]: 0,14 g/l
- Total cholesterol [4]: 0,56 g/l
